33 compounds from the supplement of paper PMC6965134 can be followed below.

A short description of this series: TIMS collisional cross section (CCS, N2) of the lipid ion; higher = larger ion cross section. Conditions: ionization mode: positive, one isomer drawn.

± gives the standard deviation of the averaged measurements.

With `CC/C=C\C/C=C\C/C=C\C/C=C\C/C=C\CCCCCC(=O)OC[C@@H](COC(=O)CCCCCCC/C=C\CCCCCC)OC(=O)CCCCCCC/C=C\CCCCCCCC` [TG 16:1_18:1_22:5] (ion (formula + adduct): [C59H100O6+NH4] 1+), the “TIMS collisional cross section” value worked out at 325.9 Å² (sample type: HeLa) and 327.7 Å² (sample type: plasma).

For `OC[C@]([H])(OC(CCC/C=C\C/C=C\C/C=C\C/C=C\CCCCC)=O)CO` [MG 0:0_20:4_0:0] (ion (formula + adduct): [C23H38O4+H] 1+), the “TIMS collisional cross section” value reads like this: (sample type: Liver) 195.7 Å²; (sample type: plasma) 197.1 Å².

For `CCCCC/C=C\C/C=C\C/C=C\C/C=C\CCCC(=O)O[C@@H](CO)COC(=O)CCCCCCC/C=C\C/C=C\CCCCC` [DG 18:2_20:4_0:0] (ion (formula + adduct): [C41H68O5+NH4] 1+), the “TIMS collisional cross section” value is, setting by setting: (sample type: Liver) 261.1 Å²; (sample type: plasma) 261.6 Å².

Turning to `CC/C=C\C/C=C\C/C=C\C/C=C\CCCCCCC(=O)O[C@H](COCCCCCCCC/C=C\CCCCCC)COP(=O)([O-])OCC[N+](C)(C)C` [PC O- 16:1@_20:4] (ion (formula + adduct): [C44H80NO7P+H] 1+), the “TIMS collisional cross section” value (sample type: plasma) was 287.2 Å².

In the case of `CCCCCCCC/C=C\CCCCCCCCCC(=O)OC[C@@H](COC(=O)CCCCCCCCCCCCCCC)OC(=O)CCCCCCC/C=C\CCCCCCCC` [TG 16:0_18:1_20:1] (ion (formula + adduct): [C57H106O6+NH4] 1+), where the note is “sample type: HeLa”, the “TIMS collisional cross section” value is reported as 328.4 Å².

`CCCCC/C=C\C/C=C\C/C=C\CCCCC(=O)O[C@H](COC(=O)CCCCCCC/C=C\C/C=C\CCCCC)COP(=O)([O-])OCC[N+](C)(C)C` [PC 18:2_18:3@] (ion (formula + adduct): [C44H78NO8P+H] 1+): the “TIMS collisional cross section” value (sample type: Liver) worked out at 289.9 Å² and the “TIMS collisional cross section” value (sample type: plasma) is reported as 289.3 Å².

As to `CCCCCC/C=C\CCCCCCCC(=O)O[C@H](COC(=O)CCCCCCCCCCCCCCC)COC(=O)CCCCCCCCCCCCCCCC` [TG 16:0_16:1_17:0] (ion (formula + adduct): [C52H98O6+NH4] 1+), under “sample type: HeLa”, the “TIMS collisional cross section” value was 315.8 Å².

For `CCCCC/C=C\C/C=C\CCCCCCCC(=O)OC[C@H](CO)OC(=O)CCCCCCCCCCC/C=C\CCCCCCCC` [DG 18:2_22:1_0:0] (ion (formula + adduct): [C43H78O5+NH4] 1+), the “TIMS collisional cross section” value (sample type: Liver) is on record as 275.5 Å².

`CC/C=C\C/C=C\C/C=C\C/C=C\C/C=C\C/C=C\CCC(=O)O[C@H](COC(=O)CCCCCCCCC/C=C\CCCCCC)COP(=O)([O-])OCC[N+](C)(C)C` [PC 18:1_22:6] (ion (formula + adduct): [C48H82NO8P+H] 1+): the “TIMS collisional cross section” value (sample type: Liver) was determined as 295.6 Å².

Turning to `C(OC(=O)CCCCCCC/C=C\C/C=C\CCCCC)[C@]([H])(OC(CCCCCCC/C=C\C/C=C\CCCCC)=O)COC(CCCCCCC/C=C\C/C=C\CCCCC)=O` [TG 18:2_18:2_18:2] (ion (formula + adduct): [C57H98O6+NH4] 1+), the “TIMS collisional cross section” value (sample type: Liver) was 321.8 Å².

With `CCCCCCCCCCCCCCCCCCCCCC(=O)O[C@@H](CO)COC(=O)CCCCCCCCCCCCCCCCC` [DG 18:0_22:0_0:0] (ion (formula + adduct): [C43H84O5+NH4] 1+), under “sample type: plasma”, the “TIMS collisional cross section” value is given as 285.7 Å².

Turning to `CCCCCCCCCCCCC/C=C/[C@@H](O)[C@H](CO)NC(=O)CCCCCCCCCCCCCCCCCCCCCC` [Cer d18:1_23:0@] (ion (formula + adduct): [C41H81NO3+H] 1+), the “TIMS collisional cross section” value is, setting by setting: (sample type: HeLa) 276.9 Å²; (sample type: Liver) 277.5 Å².

Consider `CCCCCCCCCCCCCCCC(=O)OC[C@@H](COC(=O)CCCCCCCCCCCCC)OC(=O)CCCCCCCCCCCCCC` [TG 14:0_15:0_16:0] (ion (formula + adduct): [C48H92O6+NH4] 1+), for which the “TIMS collisional cross section” value (sample type: Liver) came out at 304.9 Å² and the “TIMS collisional cross section” value (sample type: plasma) was 304.83 ± 0.05 Å².

In the case of `CCCCCCCCCC/C=C\CCCCCCCCCC(=O)OC[C@@H](O)COP(=O)([O-])OCC[N+](C)(C)C` [LPC 22:1_0:0] (ion (formula + adduct): [C30H60NO7P+H] 1+), the “TIMS collisional cross section” value came to 246.1 Å² (sample type: HeLa) and 246.6 Å² (sample type: plasma).

Take `CC/C=C\C/C=C\C/C=C\C/C=C\C/C=C\CCCCCC(=O)OC[C@@H](COC(=O)CCCCCCC/C=C\CCCCCC)OC(=O)CCC/C=C\C/C=C\C/C=C\C/C=C\CCCCC` [TG 16:1_20:4_22:5] (ion (formula + adduct): [C61H98O6+NH4] 1+): the “TIMS collisional cross section” value (sample type: HeLa) turned out to be 328.2 Å².

As to `CCCCCCCCCCCCCC(=O)OC[C@@H](COC(=O)CCCCCCCCCCC)OC(=O)CCCCCCCCCCCCC` [TG 12:0_14:0_14:0] (ion (formula + adduct): [C43H82O6+NH4] 1+), the “TIMS collisional cross section” value is, setting by setting: (sample type: HeLa) 289 Å²; (sample type: Liver) 289.1 Å²; (sample type: plasma) 289.1 Å².

For `CCCCCCCCCCCCCCCC(=O)O[C@H](CO)COP(=O)([O-])OCC[N+](C)(C)C` [LPC 16:0] (ion (formula + adduct): [C24H50NO7P+H] 1+), the “TIMS collisional cross section” value came out at 229.9 Å² (sample type: Liver) and 231 Å² (sample type: plasma).

In the case of `CCCCCC/C=C\CCCCCCCC(=O)OC[C@@H](COC(=O)CCCCCCCCCCCCC)OC(=O)CCCCCCCCCCCCC` [TG 14:0_14:0_16:1] (ion (formula + adduct): [C47H88O6+NH4] 1+), the “TIMS collisional cross section” value is listed as 299.3 Å² (sample type: HeLa) and 299.1 Å² (sample type: Liver).

Take `CC/C=C\C/C=C\C/C=C\C/C=C\C/C=C\CCCC(=O)O[C@H](COC(=O)CCCC/C=C\C/C=C\C/C=C\CCCCC)COP(=O)([O-])OCC[N+](C)(C)C` [PC 18:3_20:5] (ion (formula + adduct): [C46H76NO8P+H] 1+): the “TIMS collisional cross section” value (sample type: plasma) is on record as 288.2 Å².

In the case of `CC/C=C/C/C=C/C/C=C/C/C=C/C/C=C/C/C=C/CCC(=O)O[C@H](COC(=O)CCCCCCCCCCCCCCC)COP(=O)([O-])OCC[N+](C)(C)C` [PC 16:0_22:6] (ion (formula + adduct): [C46H80NO8P+H] 1+), the “TIMS collisional cross section” value (sample type: HeLa) was determined as 291.8 Å² and the “TIMS collisional cross section” value (sample type: plasma) came to 292 Å².

Consider `CCC/C=C\CCCCCCCC/C=C/[C@@H](O)[C@H](COP(=O)([O-])OCC[N+](C)(C)C)NC(=O)CCCCCCCCCCCCC` [SM d18:2_14:0@] (ion (formula + adduct): [C37H73N2O6P+H] 1+), for which the “TIMS collisional cross section” value (sample type: HeLa) is recorded as 275 Å².

As for `CCCCCCCC/C=C\CCCCCCCCCC(=O)OC[C@@H](COC(=O)CCCCCCC/C=C\CCCCCCCC)OC(=O)CCCCCCC/C=C\CCCCCCCC` [TG 18:1_18:1_20:1] (ion (formula + adduct): [C59H108O6+NH4] 1+), the “TIMS collisional cross section” value by setting is: (sample type: HeLa) 332.1 Å²; (sample type: plasma) 332.4 Å².

For the compound `CCCCCCCCCCCCC/C=C/[C@@H](O)[C@H](COP(=O)([O-])OCC[N+](C)(C)C)NC(=O)CCCCCCCCCCCCCCCCCCC` [SM d18:1_20:0@] (ion (formula + adduct): [C43H87N2O6P+H] 1+), the “TIMS collisional cross section” value (sample type: plasma) is recorded as 297 Å².

For the compound `CCCCCCCC/C=C\CCCCCCCC(=O)O[C@@H](COC(=O)CCCCCCC/C=C\CCCCCCCCC)COC(=O)CCCCCCCCCCCCCCC` [TG 16:0_18:1_19:1] (ion (formula + adduct): [C56H104O6+NH4] 1+), the “TIMS collisional cross section” value (sample type: HeLa) is 325.5 Å².

Take `CCCCCCCCCCCCCCC(=O)OC[C@@H](COC(=O)CCCCCCCCCCCCC)OC(=O)CCCCCCCCCCCCC` [TG 14:0_14:0_15:0] (ion (formula + adduct): [C46H88O6+NH4] 1+): the “TIMS collisional cross section” value (sample type: HeLa) was 297.1 Å².

`CCCCCCCCCCCCCCC(=O)OC[C@@H](COC(=O)CCCCCCCCCCC)OC(=O)CCCCCCCCCCCCC` [TG 12:0_14:0_15:0] (ion (formula + adduct): [C44H84O6+NH4] 1+): the “TIMS collisional cross section” value (sample type: HeLa) is recorded as 291.9 Å².

Regarding `CCCCCCCC/C=C\CCCCCCCC(=O)OC[C@@H](COC(=O)CCCCCCCCCCC)OC(=O)CCCCCCCCCCC` [TG 12:0_12:0_18:1] (ion (formula + adduct): [C45H84O6+NH4] 1+), the “TIMS collisional cross section” value (sample type: Liver) is recorded as 291.3 Å².

With `CCCCCCCC/C=C\CCCCCCCC(=O)OC[C@H](COC(=O)CCCCCCC/C=C\CCCCCCCCC)OC(=O)CCCCCCC/C=C\CCCCCCCC` [TG 18:1_18:1_19:1] (ion (formula + adduct): [C58H106O6+NH4] 1+), the “TIMS collisional cross section” value (sample type: HeLa) is listed as 329.1 Å².

For `CCCCCCCCCCCCCCCC(=O)OC[C@@H](COC(=O)CCCCCCCCCCCC)OC(=O)CCCCCCCCCCCC` [TG 13:0_13:0_16:0] (ion (formula + adduct): [C45H86O6+NH4] 1+), the “TIMS collisional cross section” value (sample type: HeLa) was found to be 295.3 Å².

With `CCCCCCCCCCCCCCCC(=O)OC[C@@H](O)COP(=O)([O-])OCC[N+](C)(C)C` [LPC 16:0_0:0] (ion (formula + adduct): [C24H50NO7P+H] 1+), the “TIMS collisional cross section” value by setting is: (sample type: HeLa) 230.8 Å²; (sample type: Liver) 230.6 Å²; (sample type: plasma) 229.87 ± 0.98 Å².

Consider `CC/C=C\C/C=C\C/C=C\C/C=C\C/C=C\C/C=C\CCC(=O)OC[C@H](COP(=O)(O)OCCN)OC(=O)CC/C=C\C/C=C\C/C=C\C/C=C\C/C=C\C/C=C\CC` [PE 22:6_22:6] (ion (formula + adduct): [C49H74NO8P+H] 1+), for which, where the note is “sample type: HeLa”, the “TIMS collisional cross section” value is listed as 286.7 Å².

On to `CCCCCCCCCCCCCCCCCCCCCC(=O)OC[C@@H](COC(=O)CCCCCCCCCCCCCCC)OC(=O)CCCCCCCCCCCCCCCCCCCC` [TG 16:0_21:0_22:0] (ion (formula + adduct): [C62H120O6+NH4] 1+), for which the “TIMS collisional cross section” value amounted to 346.3 Å² (sample type: HeLa) and 346 Å² (sample type: plasma).

With `CC/C=C\C/C=C\C/C=C\C/C=C\C/C=C\C/C=C\CCC(=O)O[C@H](CO/C=C\CCCCCCCCCCCCCCCC)COP(=O)([O-])OCC[N+](C)(C)C` [PC P- 18:0@_22:6] (ion (formula + adduct): [C48H84NO7P+H] 1+), the “TIMS collisional cross section” value (sample type: HeLa) came to 297.1 ± 0.71 Å².
